Experimental data taken from US8017612B2, “Piperazine compound and use thereof as a HCV polymerase inhibitor” (priority 2006, dated 2011).

Tests used:
[1] = target: T1, HCV polymerase (NS5B) type 1b (Hepatitis C virus genotype 1b, UniProt P26663); test: Assay of enzyme (HCV polymerase) inhibitory activity, type 1b enzyme; format: biochemical, HCV BK strain (type 1b); conditions: HCV polymerase inhibitory activity (IC50), 1b, type 1b enzyme 0.5 μg/ml, 25° C., 60 min
T1 construct: a region encoding NS5B (J Virol 1991 March, 65(3), 1105-13, 544 amino acids after deletion of 47 amino acids on the C-terminal); 6xHis (C); made in house; host or cells: Escherichia coli
Summary of the method: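 NS5B from HCV BK strain (type 1b), C-terminal 47 aa deleted, C-terminal His6-tagged, E. coli-expressed, 0.5 μg/ml, with ~450 nt substrate RNA carrying the 3′ UTR (polyU, 3′X) at 5 μg/ml. Incubation 60 min at 25 °C with 50 μM ATP/GTP/CTP, 2 μM UTP plus [3H]UTP, pH 7.5 Tris.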

[2] = target: T2, HCV polymerase (NS5B) type 1a (Hepatitis C virus genotype 1a, UniProt P26664); test: Assay of enzyme (HCV polymerase) inhibitory activity, type 1a enzyme; format: biochemical, HCV type 1a (cloned from the blood of patients); conditions: HCV polymerase inhibitory activity (IC50), 1a, type 1a enzyme 1.5 μg/ml, 25° C., 60 min
T2 construct: made in house; host or cells: Escherichia coli (by the 'similar method' of the 1b enzyme)
Summary of the method: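 Patient-derived type 1a NS5B (C-terminal 47-aa deletion, His-tagged, E. coli-expressed) at 1.5 μg/ml was reacted with 5 μg/ml 3′UTR-containing substrate RNA, 50 μM ATP/GTP/CTP, 2 μM UTP plus [3H]UTP, pH 7.5, 25° C for 60 min. TCA-precipitated RNA radioactivity was counted; IC50 from ± compound.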

## CCC(F)(F)c1ccc(CNC(=O)[C@H]2CN(C(=O)Nc3ccnc(C(=O)N4CCOCC4)c3)CCN2S(=O)(=O)c2ccc(OC(F)(F)F)cc2)cc1 [Example 513, (R)-4-(4-trifluoromethoxy-benzenesulfonyl)-piperazine-1,3-dicarboxylic acid 3-[4-(1,1-difluoro-propyl)-benzylamide] 1-{[2-(morpholine-4-carbonyl)-pyridin-4-yl]-amide}]
[1]
  IC50: < 100 nM
[2]
  IC50: < 100 nM

## CCC(F)(F)c1ccc(CNC(=O)[C@H]2CN(C(=O)Nc3ccnc(C(=O)N4CCCC4)c3)CCN2S(=O)(=O)c2ccc(OC(F)(F)F)cc2)cc1 [Example 514, (R)-4-(4-trifluoromethoxy-benzenesulfonyl)-piperazine-1,3-dicarboxylic acid 3-[4-(1,1-difluoro-propyl)-benzylamide] 1-{[2-(pyrrolidine-1-carbonyl)-pyridin-4-yl]-amide}]
[1]
  IC50: < 100 nM
[2]
  IC50: < 100 nM

## CCCc1ccc(CNC(=O)[C@H]2CN(c3cnc(C(=O)OC)c(NC(C)=O)n3)CCN2S(=O)(=O)c2ccc(OC(F)(F)F)cc2)cc1 [Example 515, (R)-6′-acetylamino-3-(4-propyl-benzylcarbamoyl)-4-(4-trifluoromethoxy-benzenesulfonyl)-3,4,5,6-tetrahydro-2H-[1,2′]bipyrazinyl-5′-carboxylic acid methyl ester]
[1]
  IC50: < 100 nM
[2]
  IC50: < 100 nM

## CCCc1ccc(CNC(=O)[C@H]2CN(c3n[nH]c(=O)s3)CCN2S(=O)(=O)c2ccc(OC(F)(F)F)cc2)cc1 [Example 516, (R)-4-(5-oxo-4,5-dihydro-[1,3,4]thiadiazol-2-yl)-1-(4-trifluoromethoxy-benzenesulfonyl)-piperazine-2-carboxylic acid 4-propyl-benzylamide]
[1]
  IC50: < 100 nM
[2]
  IC50: < 100 nM

## CCC(F)(F)c1ccc(CNC(=O)[C@H]2CN(C(=O)Nc3ccnc(Cl)c3)CCN2S(=O)(=O)c2ccc(OC(F)(F)F)cc2)cc1 [Example 517, (R)-4-(4-trifluoromethoxy-benzenesulfonyl)-piperazine-1,3-dicarboxylic acid 1-[(2-chloro-pyridin-4-yl)-amide] 3-[4-(1,1-difluoro-propyl)-benzylamide]]
[1]
  IC50: < 100 nM
[2]
  IC50: < 100 nM

## CCC(F)(F)c1ccc(CNC(=O)[C@H]2CN(C(=O)Cc3nnn(C)n3)CCN2S(=O)(=O)c2ccc(OC(F)(F)F)cc2)cc1 [Example 518, (R)-4-[2-(2-methyl-2H-tetrazol-5-yl)-acetyl]-1-(4-trifluoromethoxy-benzenesulfonyl)-piperazine-2-carboxylic acid 4-(1,1-difluoro-propyl)-benzylamide]
[1]
  IC50: < 100 nM
[2]
  IC50: < 100 nM

## CCC(F)(F)c1ccc(CNC(=O)[C@H]2CN(C(=O)Cc3nnnn3C)CCN2S(=O)(=O)c2ccc(OC(F)(F)F)cc2)cc1 [Example 519, (R)-4-[2-(1-methyl-1H-tetrazol-5-yl)-acetyl]-1-(4-trifluoromethoxy-benzenesulfonyl)-piperazine-2-carboxylic acid 4-(1,1-difluoro-propyl)-benzylamide]
[1]
  IC50: 100 to 1000 nM
[2]
  IC50: 100 to 1000 nM

## CCC(F)(F)c1ccc(CNC(=O)[C@H]2CN(C(=O)c3cscn3)CCN2S(=O)(=O)c2ccc(OC(F)(F)F)cc2)cc1 [Example 520, (R)-4-(thiazole-4-carbonyl)-1-(4-trifluoromethoxy-benzenesulfonyl)-piperazine-2-carboxylic acid 4-(1,1-difluoro-propyl)-benzylamide]
[1]
  IC50: 100 to 1000 nM
[2]
  IC50: > 1000 nM

## CCC(F)(F)c1ccc(CNC(=O)[C@H]2CN(C(=O)c3cc(C)on3)CCN2S(=O)(=O)c2ccc(OC(F)(F)F)cc2)cc1 [Example 521, (R)-4-(5-methyl-isoxazole-3-carbonyl)-1-(4-trifluoromethoxy-benzenesulfonyl)-piperazine-2-carboxylic acid 4-(1,1-difluoro-propyl)-benzylamide]
[1]
  IC50: 100 to 1000 nM
[2]
  IC50: > 1000 nM

## CCCc1ccc(CNC(=O)[C@H]2CN(c3cnc(C(=O)O)cn3)CCN2S(=O)(=O)c2ccc(CC)s2)cc1 [Example 522, (R)-4-(5-ethyl-thiophene-2-sulfonyl)-3-(4-propyl-benzylcarbamoyl)-3,4,5,6-tetrahydro-2H-[1,2′]bipyrazinyl-5′-carboxylic acid]
[1]
  IC50: < 100 nM
[2]
  IC50: < 100 nM

## Cc1cc(N2CCN(S(=O)(=O)c3ccc(OC(F)(F)F)cc3)[C@@H](C(=O)NCc3ccc(C(C)C)cc3)C2)n[nH]1 [Example 523, (R)-4-(5-methyl-1H-pyrazol-3-yl)-1-(4-trifluoromethoxy-benzenesulfonyl)-piperazine-2-carboxylic acid 4-isopropyl-benzylamide]
[1]
  IC50: 100 to 1000 nM
[2]
  IC50: 100 to 1000 nM

## CCc1ccc(S(=O)(=O)N2CCN(c3cnc(C(=O)O)cn3)C[C@@H]2C(=O)NCc2ccc(C(C)(C)C)cc2)cc1 [Example 524, (R)-3-(4-tert-butyl-benzylcarbamoyl)-4-(4-ethyl-benzenesulfonyl)-3,4,5,6-tetrahydro-2H-[1,2′]bipyrazinyl-5′-carboxylic acid]
[1]
  IC50: < 100 nM
[2]
  IC50: < 100 nM

## CCC(F)(F)c1ccc(CNC(=O)[C@H]2CN(C(=O)Nc3cscn3)CCN2S(=O)(=O)c2ccc(OC(F)(F)F)cc2)cc1 [Example 525, (R)-4-(4-trifluoromethoxy-benzenesulfonyl)-piperazine-1,3-dicarboxylic acid 3-[4-(1,1-difluoro-propyl)-benzylamide] 1-thiazol-4-ylamide]
[1]
  IC50: < 100 nM
[2]
  IC50: < 100 nM

## CCC(F)(F)c1ccc(CNC(=O)[C@H]2CN(C(=O)Nc3cc(C)on3)CCN2S(=O)(=O)c2ccc(OC(F)(F)F)cc2)cc1 [Example 526, (R)-4-(4-trifluoromethoxy-benzenesulfonyl)-piperazine-1,3-dicarboxylic acid 3-[4-(1,1-difluoro-propyl)-benzylamide] 1-[(5-methyl-isoxazol-3-yl)-amide]]
[1]
  IC50: 100 to 1000 nM
[2]
  IC50: 100 to 1000 nM

## CCC(F)(F)c1ccc(CNC(=O)[C@H]2CN(C(=O)Nc3nc(C)ns3)CCN2S(=O)(=O)c2ccc(OC(F)(F)F)cc2)cc1 [Example 527, (R)-4-(4-trifluoromethoxy-benzenesulfonyl)-piperazine-1,3-dicarboxylic acid 3-[4-(1,1-difluoro-propyl)-benzylamide] 1-[(3-methyl-[1,2,4]thiadiazol-5-yl)-amide]]
[1]
  IC50: 100 to 1000 nM
[2]
  IC50: 100 to 1000 nM

## CCC(F)(F)c1ccc(CNC(=O)[C@H]2CN(C(=O)Nc3cc(C)no3)CCN2S(=O)(=O)c2ccc(OC(F)(F)F)cc2)cc1 [Example 528, (R)-4-(4-trifluoromethoxy-benzenesulfonyl)-piperazine-1,3-dicarboxylic acid 3-[4-(1,1-difluoro-propyl)-benzylamide] 1-[(3-methyl-isoxazol-5-yl)-amide]]
[1]
  IC50: < 100 nM
[2]
  IC50: 100 to 1000 nM

## CC(=O)N1CCN(S(=O)(=O)c2ccc(OC(F)(F)F)cc2)[C@@H](C(=O)NCc2ccc(C(C)(C)C)cc2)C1 [Example 529, (R)-4-acetyl-1-(4-trifluoromethoxy-benzenesulfonyl)-piperazine-2-carboxylic acid 4-tert-butyl-benzylamide]
[1]
  IC50: < 100 nM
[2]
  IC50: < 100 nM

## CCCc1ccc(CNC(=O)[C@H]2CN(c3cnc(N)cn3)CCN2S(=O)(=O)c2ccc(OC(F)(F)F)cc2)cc1 [Example 530, (R)-5′-amino-4-(4-trifluoromethoxy-benzenesulfonyl)-3,4,5,6-tetrahydro-2H-[1,2′]bipyrazinyl-3-carboxylic acid 4-propyl-benzylamide]
[1]
  IC50: < 100 nM
[2]
  IC50: 100 to 1000 nM
